Results taken from US20250025444A1, “TREATMENT OF NEURODEGENERATIVE DISEASES VIA ADMINISTRATION OF BUNTANETAP AND A PHOSPHODIESTERASE INHIBITOR” (ANNOVIS BIO, INC., priority 2022, published 2025).
Marks after values point to notes of the source that are not given here.

Assays:
[1] = 3 phase 3 clinical studies, failed; cited from earlier work
[2] = in vivo; cited from earlier work
[3] = cited from earlier work
tau [4] = conditions: unpublished observation, Peter Davies Laboratory; cited from earlier work
[5] = tested on: early AD patients and early PD patients; assay: Phase 2a double-blind, placebo-controlled study in early AD and early PD patients; type: in vivo, human
[6] = tested on: fully differentiated Down syndrome nerve cells; conditions: cited from earlier work
[7] = tested on: Ts65dn mouse model of Down syndrome (DS); conditions: cited from earlier work
[8] = tested on: early AD patients and early PD patients; conditions: cited from earlier work
[9] = tested on: mouse hippocampal slices perfused with 200 nM oligomeric Aβ; assay: Electrophysiological analysis (LTP, CA1 fEPSP) of hippocampal slices perfused with oligomeric Aβ; type: cell-based, C57BI6 mice; conditions: for Aβ-induced LTP defect: 200 nM oligomeric Aβ
Procedure: Animals: C57BI6 mice of both sexes were used for these experiments. They were obtained by a breeding colony maintained at the animal facility of Columbia University.
Aβ was prepared as previously described (Stine at al, J Biol Chem. 2003).
Electrophysiological Analysis was performed on […] hippocampal slices, cut with a tissue chopper and maintained in an interface chamber at 29° C. for 90 min prior to recording. Briefly, CA1 fEPSPs were recorded by placing both the stimulating and the recording electrodes in CA1 stratum radiatum. Basal synaptic transmission was assayed, either by plotting the stimulus voltages against slopes of fEPSP, or by plotting the peak amplitude of the fiber volley against the slope of the fEPSP. A 10 min baseline was recorded every min at an intensity that evokes a response, ˜35% of the maximum evoked response in the presence of vehicle. Then slices were either perfused with 200 nM oligomeric Aβ or vehicle with or without compound for 20 min prior to applying a theta burst stimulation (4 pulses at 100 Hz, with the bursts repeated at 5 Hz and each tetanus including 3 ten-burst trains separated by 15 sec). Data was subjected to statistical analyses to determine the effects of combination on inhibiting synaptic dysfunction.
Slices were coded to blind investigators with respect to treatment. Results were expressed with Standard Error of the Mean (SEM). Level of significance was set for p<0.05. Results were analyzed by ANOVA analysis with post-hoc correction.

APP [10] = assay: APP in vitro, Western blot in SH-SY-5Y human neuroblastoma cells; type: cell-based; conditions: SH-SY-5Y cells, 0, 0.1, 1, 5 and 10 μM
Text: (§1) Buntanetap's effect on neurotoxic proteins.

[11] = tested on: APP/PS1 transgenic (tg) mouse model of AD; conditions: cited from earlier work
APP and its fragments [12] = conditions: APP/PS1 transgenic mice, literature report; cited from earlier work
[13] = tested on: APP, Tau, and αSYN in the cerebrospinal fluid (CSF); conditions: cited from earlier work
[14] = tested on: traumatic brain injury rats; conditions: cited from earlier work
αSYN [15] = conditions: transgenic Parkinson's animals, brain and gut; cited from earlier work
APP and its fragments [16] = assay: APP in vivo: APP/PS1 transgenic AD mice, hippocampus
Text: as §1
FIG. 2A, APP in vivo. […] GAPDH and Synaptophysin were loading controls. FIG. 2 also includes a collection of graphs showing relative density of APP plotted against control and time after buntanetap treatment; relative density of CTFβ plotted against control and time after buntanetap treatment; relative density of CTFα plotted against control and time after buntanetap treatment; Aβ42 levels in brain tissue plotted against control and time after buntanetap treatment; and Aβ40 levels in brain tissue plotted against control and time after buntanetap treatment. Finally, FIG. 2 also includes a Western blot showing levels of APP, NSB, CTFβ, and CTFα after buntanetap treatment over time (minutes).

rat acute glaucoma model = conditions: cited from earlier work
tau [17] = conditions: Human tau mice, unpublished observation; cited from earlier work
APP [18] = conditions: literature report; cited from earlier work
[19] = tested on: APP, Tau, and αSYN in the cerebrospinal fluid (CSF); assay: Study of MCI subjects: CSF and plasma markers before and after 10 days of buntanetap (proof of mechanism); conditions: 4×60 mg/day
[20] = tested on: human SNCAA53T tg mouse model of PD; conditions: cited from earlier work
clinical = conditions: human, brain (relative to plasma)
αSYN [21] = conditions: neuroblastoma cells; cited from earlier work
[22] = tested on: patients with mild to moderate AD; assay: Randomized, double-blind, placebo-controlled Phase II/III study in mild to moderate AD (NCT05686044); type: in vivo, human
Procedure: A randomized, double-blind, placebo-controlled Phase II/III study trial investigating the efficacy, safety, and tolerability of buntanetap in patients with mild to moderate AD was conducted. This was a dose-ranging study where patients received either one of three doses of buntanetap (7.5 mg, 15 mg, or 30 mg) or placebo on top of their standard of care for 12 weeks. In this study, over 700 patients were screened, a total of 353 patients were enrolled, and 325 patients completed the study across 54 sites in the US. The study included mild to moderate AD patients whose Mini Mental State Examination (MMSE) scores at baseline ranged from 14 to 24. (www.clinicaltrials.gov (NCT05686044)).
Beyond safety, the trial assessed the changes in two co-primary endpoints: Alzheimer's Disease Assessment Scale-Cognitive Subscale 11 (ADAS-Cog 11) and Alzheimer's Disease Cooperative Study Clinician's Global Impression of Change (ADCS-CGIC), which assess cognition and activities of daily living. The study monitored for safety and collected plasma to measure several biomarkers to assess the disease state, potential disease progression, and treatment effects.

Structure (SMILES): CN1CC[C@@]2(C)c3cc(OC(=O)Nc4ccccc4)ccc3N(C)[C@@H]12 [phenserine, (−)-N-phenylcarbamoyl eseroline]
- side effects [1]: high cholinomimetic side effects

Structure (SMILES): COc1ccc(CN=c2[nH]c(N3CCC[C@H]3CO)ncc2C(=O)NCc2ncccn2)cc1Cl [avanafil]
- half-life [2]: about 5 hours

Structure (SMILES): CN1CC[C@]2(C)c3cc(OC(=O)Nc4ccccc4)ccc3N(C)C12 (single isomer, unassigned) [buntanetap]
- tolerability ([3]; doses up to 4×60 mg daily×10 days): well tolerated
- terminal half-life ([3]; plasma, all doses, cleared biphasically): 4.3 to 4.7 h
- tau in vitro (tau [4]): lowers
- axonal and synaptic function ([5]; AD and PD patients): improved
- blood brain barrier passage ([5]; AD and PD patients): crossed the blood brain barrier
- inflammatory markers ([5]; AD and PD patients): reduced
- neurotoxic protein biomarkers ([5]; AD and PD patients): reduced
- cognition as measured by ADAS-Cog11 and WAIS coding speed ([5]; AD patients, 80 mg QD, significant versus baseline): improved
- motor function as measured by MDS-UPDRS (Part II, III, IV and total) ([5]; PD patients, all doses 5-80 mg QD, maximum improvement for 10 & 20 mg): improved
- WAIS speed and accuracy ([5]; PD patients, significant versus placebo at 5 mg, 20 mg and 80 mg): improved
- anterograde and retrograde vesicle transport [6]: Normalized
- memory and learning [7]: Restored
- levels of neurotoxic proteins and inflammatory factors (biomarker data) ([8]; AD and PD cohorts): trend in lowering
- ADAS-Cog11 and WAIS coding ([8]; AD patients): statistically significant improvements
- MDS-UPDRS and WAIS coding ([8]; PD patients): statistically significant improvements
- safety and tolerability ([8]; doses up to 80 mg, AD and PD patients): well tolerated
- Cmax and AUC ([8]; plasma, up to 80 mg QD): increased with dose without evidence for a plateau
- % Improvement (based on change in Residual Potential; veh minus wt ab = 100%) ([9]; ab + buntanetap 1 μM): 26.7%
- Residual Potential (mean) ([9]; ab + buntanetap 1 μM): 152.11
- % Improvement (based on change in Residual Potential; veh minus wt ab = 100%) ([9]; ab + buntanetap 10 μM): 110.7%
- Residual Potential (mean) ([9]; ab + buntanetap 10 μM): 210.49
- Aβ-induced LTP defect ([9]; buntanetap 1 μM alone): did not ameliorate
- APP level (Western blot, in relation to Actin standard) (APP [10]): lowers APP in vitro in a dose-dependent manner
- memory and learning ([11]; APP/PS1 tg mouse model of AD): Restored
- impaired synaptic transmission ([11]; hippocampus of APP/PS1 tg mice): Normalized
- levels of APP and all its fragments (APP and its fragments [12]): lowers
- duration of effect in lowering neurotoxic proteins and inflammation after the last dose ([13]; MCI subjects, CSF, 12 h sampling period): ≥ 12 h
- CSF Aβ42 ([13]; MCI subjects): trend to lower
- CSF levels of sAPPα, sAPPβ, t-tau, p-tau, and specific inflammatory markers ([13]; MCI subjects): significantly lowered
- half-life in CSF ([13]; MCI subjects): > 12 h
- inflammation ([13]; human CSF of MCI subjects): lowered
- inflammation ([14]; rat brain after TBI): lowered
- impaired synaptic transmission ([14]; rat striatum after TBI): Normalized
- nerve cell protection ([14]; rat substantia nigra after TBI): protected
- memory and learning ([14]; traumatic brain injury rats): Preserved
- αSYN in vivo (αSYN [15]): lowers
- duration of reduction of APP and all related peptides in hippocampus after the last dose (APP and its fragments [16]; APP/PS1 mice): at least 9 hours
- APP and its fragments in hippocampus (APP and its fragments [16]; APP/PS1 transgenic AD mice): reduced
- retina (rat acute glaucoma model; acute glaucoma): Preserved
- nerve cell protection (rat acute glaucoma model; rat acute glaucoma model): protected
- tau in vivo (tau [17]): lowers
- levels of APP in vitro in neuroblastoma cells (APP [18]): lowers
- levels of APP, Tau, and αSYN in the cerebrospinal fluid (CSF) [19]: normalized
- colonic motility [20]: Restored
- Kp (clinical): ~8
- αSYN in vitro (αSYN [21]): lowers
- Non-Responders (Number) ([22]; 7.5 mg): 5
- Non-Responders (Percentage) ([22]; 7.5 mg): (26.32%)
- Responders (Number) ([22]; 7.5 mg): 14
- Responders (Percentage) ([22]; 7.5 mg): (73.68%)**
- Non-Responders (Number) ([22]; 15 mg): 7
- Non-Responders (Percentage) ([22]; 15 mg): (28.00%)
- Responders (Number) ([22]; 15 mg): 18
- Responders (Percentage) ([22]; 15 mg): (72.00%)**
- Non-Responders (Number) ([22]; 30 mg): 3
- Non-Responders (Percentage) ([22]; 30 mg): (12.50%)
- Responders (Number) ([22]; 30 mg): 21
- Responders (Percentage) ([22]; 30 mg): (87.50%)***
- difference in the proportion of participants who improved relative to placebo ([22]; 30 mg group): three-fold

Structure (SMILES): COc1ccc(CNc2c(CO)cnc3c(C4CC4)cc(C#N)cc23)cc1Cl [7a, 4-[(3-Chloro-4-methoxybenzyl)amino]-8-cyclopropyl-3-(hydroxymethyl) quinoline-6-carbonitrile]
- Aβ-induced LTP defect ([9]; 7a 1 nM alone): did not ameliorate
- % Improvement (based on change in Residual Potential; veh minus wt ab = 100%) ([9]; ab + 7a 1 nM): 14.23%
- Residual Potential (mean) ([9]; ab + 7a 1 nM): 147.78
- % Improvement (based on change in Residual Potential; veh minus wt ab = 100%) ([9]; ab + 7a 10 nM): 59.63%
- Residual Potential (mean) ([9]; ab + 7a 10 nM): 174.99
- % Improvement (based on change in Residual Potential; veh minus wt ab = 100%) ([9]; ab + 7a 50 nM): 106.8%
- Residual Potential (mean) ([9]; ab + 7a 50 nM): 207.77
